The subject of data set [1] is methicillin-susceptible Staphylococcus aureus MSSA (SH1000). The experiment in a line: Minimum inhibitory concentration (MIC), S. aureus. The following applies: MH media, 37° C., 72 hours, visual growth. Type of data set: cell-based. As for the experimental part:
(§1) As used herein, the term “minimum inhibitory concentration (MIC)” refers to the lowest concentration of an antimicrobial agent that will inhibit the visible growth of a microorganism after overnight incubation. MIC values against bacteria, for example, the Gram-positive Staphylococcus aureus and Enterococcus faecalis and the Gram-negative Escherichia coli and Pseudomonas aeruginosa were determined by standard methods. See also P. A. Wayne, Methods for Dilution Antimicrobial Tests for Bacteria that Grow Aerobically; Approved Standard, Ninth Edition, 2012, CLSI Document M07-A9, Vol. 32 No. 2, which is incorporated by reference herein in its entirety.
(§2) For all biological assays, laboratory strains of methicillin-susceptible Staphylococcus aureus MSSA (SH1000), Enterococcus faecalis (OG1RF), Escherichia coli (MC4100), Pseudomonas aeruginosa (PAO1), community-acquired methicillin-resistant Staphylococcus aureus CA-MRSA (USA300-0114), and hospital-acquired methicillin-resistant Staphylococcus aureus HA-MRSA (ATCC 33591) were grown with shaking at 37° C. overnight from freezer stocks in 10 mL of the indicated media.
(§3) Compounds were serially diluted two-fold from stock solutions to yield twelve test concentrations. Overnight S. aureus, E. faecalis, E. coli, P. aeruginosa, USA300-0114 (CA-MRSA), and ATCC 33591 (HA-MRSA) cultures diluted to ca. 10^6 cfu/mL in MH media and 100 μL were inoculated into each well of a U-bottom 96-well plate (BD Biosciences, BD 351177) containing 100 μL of compound solution. Plates were incubated statically at 37° C. for 72 hours upon which time wells were evaluated visually for bacterial growth. The MIC was determined as the lowest concentration of compound resulting in no bacterial growth visible to the naked eye, based on the majority of three independent experiments. Aqueous DMSO controls were conducted as appropriate for each compound.

For data set [2], the system named is community-acquired methicillin-resistant Staphylococcus aureus CA-MRSA (USA300-0114). Nature of the data set: Minimum inhibitory concentration (MIC), CA-MRSA. Type of data set: cell-based. As to conditions: MH media, 37° C., 72 hours, visual growth. As for the experimental part:
as §1, §2, §3

Data set [3] concerns Escherichia coli (MC4100). The experiment in a line: Minimum inhibitory concentration (MIC), E. coli. Type of data set: cell-based. As to conditions: MH media, 37° C., 72 hours, visual growth. As for the experimental part:
as §1, §2, §3

For data set [4], the system named is Enterococcus faecalis (OG1RF). The experiment in a line: Minimum inhibitory concentration (MIC), E. faecalis. Type of data set: cell-based. The following applies: MH media, 37° C., 72 hours, visual growth. As for the experimental part:
as §1, §2, §3

Data set [5] is described as follows: Stability of the prepared amphiphiles. The following applies: observation after preparation. Type of data set: physicochemical. As for the experimental part: (§4) For the tris-pyridine system, it was initially attempted to alkylate the commercially available O3Pyr, which led to no reaction under a number of SN2-type reaction conditions, presumably due to steric hindrance next to the nucleophilic pyridine nitrogen. The preparation of the “para” isomer via a precedented reductive amination shown in FIG. 4 (52%) was then carried out (Oh et al., 2007, Korean Chem. Soc, 28: 2193-2194, Abdel-Magid et al., 1996, J. Org. Chem, 61: 3849-3862). […] Attempts to prepare homologs led to variable yields and unacceptable purity. While not wishing to be bound by any particular theory it was hypothesized that this could have resulted from a fragmentation event driven by the central nitrogen, which might be circumvented by a change in the electronic distribution of the QAC. […] These amphiphiles were prepared in 71-97% yields, again after recrystallization or trituration. […]

Data set [6] deals with hospital-acquired methicillin-resistant Staphylococcus aureus HA-MRSA (ATCC 33591). The experiment in a line: microbe, parasite or virus in culture. As to conditions: Staphylococcus aureus, 72 h, read-out: MIC, HA-MRSA. Type of data set: cell-based. As for the experimental part: as §1, §2, §3
The test system of data set [7] is red blood cells (mechanically defibrinated sheep blood). Nature of the data set: Red blood cell (RBC) lysis assay (Lysis20). Type of data set: cell-based. As to conditions: sheep RBCs in PBS, 37° C., 1 hour, absorbance 540 nm; Table 1. An excerpt:
These assessments followed standard protocols (Minbiole et al., 2016, Tetrahedron, 72: 3559-3566, Forman et al., 2016, ChemMedChem, 11: 1401-1405, Forman et al., 2016, ChemMedChem, 11: 958-962, Mitchell et al., 2015, ChemBioChem, 16: 2299-2303, Jennings et al., 2015, ACS Inf. Dis, 1: 304-308, Paniak et al., 2014, Bioorg. Med. Chem. Lett, 24: 5824-5828, Ator et al., 2014, Bioorg. Med. Chem. Lett, 24: 3706-3709, Jennings et al., 2014, ChemBioChem, 15: 2211-2215, Black et al., 2014, Bioorg. Med. Chem. Lett, 24, 99-102, Grenier et al., 2012, Bioorg. Med. Chem. Lett, 22: 4055-4058).
RBC lysis assays were performed on mechanically defibrinated sheep blood (Hemostat Labs: DSB030). 1.5 mL of blood was placed into a microcentrifuge tube and centrifuged at 10,000 rpm for ten minutes. The supernatant was removed and the cells were resuspended with 1 mL of phosphate-buffered saline (PBS). The suspension was centrifuged as previously, the supernatant was removed, and cells were resuspended two more times. The final cell suspension was diluted twentyfold with PBS. The twentyfold suspension dilution was then aliquoted into microcentrifuge tubes containing compound serially diluted in PBS. TritonX (1% by volume) served as a positive control (100% lysis marker) and sterile PBS served as a negative control (0% lysis marker). Samples were then placed in an incubator at 37° C. and shaken at 200 rpm. After 1 hour, the samples were centrifuged at 10,000 rpm for ten minutes. The absorbance of the supernatant was measured with a UV spectrometer at a 540 nm wavelength.

The test system of data set [8] is Pseudomonas aeruginosa (PAO1). Nature of the data set: Minimum inhibitory concentration (MIC), P. aeruginosa. Type of data set: cell-based. The following applies: MH media, 37° C., 72 hours, visual growth. As for the experimental part: as §1, §2, §3
For data set [9], the system named is six bacteria (SA, EF, EC, PA, CA-MRSA, HA-MRSA). Nature of the data set: Antimicrobial activity (MIC) over the panel of six bacteria. Type of data set: cell-based. As for the experimental part:
as §4
Compounds were serially diluted two-fold from stock solutions to yield twelve test concentrations. […] Plates were incubated statically at 37° C. for 72 hours upon which time wells were evaluated visually for bacterial growth. The MIC was determined as the lowest concentration of compound resulting in no bacterial growth visible to the naked eye, based on the majority of three independent experiments. […]

Regarding `CCCCCCCCCC[n+]1ccc(CN(Cc2cc[n+](CCCCCCCCCC)cc2)Cc2cc[n+](CCCCCCCCCC)cc2)cc1` [P3Pyr-10,10,10], the MIC in data set [1] stood at 0.5 µM; in data set [2], 0.5 µM; in data set [3], 1 µM; in data set [4], 1 µM; in data set [6] it was 0.5 µM; in data set [8], 2 µM. Also, in [5], the stability result is given as “poor stability”. Moreover, the “Lysis20 (highest concentration at which <20% of RBCs are lysed)” value in data set [7] was found to be 4 μm.
Regarding `CCCCCCCCCCC[n+]1ccc(CCCc2cc[n+](CCCCCCCCCCC)cc2)cc1` [2Pyr-11,11], the MIC in data set [1] is 0.5 µM; in data set [2], 0.25 µM; in [3] it was 0.5 µM; in data set [4], 0.25 µM; in [6], 0.5 µM; in data set [8] it was 2 µM. In addition, in [9], the “antimicrobial activity / bioactivity in words” value is listed as “nanomolar inhibition against 5 of 6 bacteria tested”. In addition, in [7], the “Lysis20 (highest concentration at which <20% of RBCs are lysed)” value is on record as 8 μm.
In the case of `CCCCCCCCCCCC[n+]1ccc(CN(Cc2cc[n+](CCCCCCCCCCCC)cc2)Cc2cc[n+](CCCCCCCCCCCC)cc2)cc1` [P3Pyr-12,12,12], the MIC was determined as 2 µM in [1]; 1 µM in data set [2]; 2 µM in data set [3]; 2 µM in [4]; 2 µM in [6]; 8 µM in [8]. Also, in [5], the stability entry is “poor stability”. Also, the “Lysis20 (highest concentration at which <20% of RBCs are lysed)” value in data set [7] is on record as 8 μm.
Take `CCCCCCCCCCCCCCCCCC[n+]1cccc(CN(Cc2ccc[n+](CCCCCCCCCCCCCCCCCC)c2)Cc2ccc[n+](CCCCCCCCCCCCCCCCCC)c2)c1` [M3Pyr-18,18,18]: the MIC in data set [1] is 8 µM; in [2], 4 µM; in [3], 63 µM; in data set [4] it was 32 µM; in data set [6], 4 µM; in data set [8], more than 250 µM. The “Lysis20 (highest concentration at which <20% of RBCs are lysed)” value in data set [7] came to 8 μm.
Turning to `CCCCCCCCCCCCCCCC[n+]1ccc(CCCc2cc[n+](CCCCCCCCCCCCCCCC)cc2)cc1` [2Pyr-16,16], the MIC was 4 µM in data set [1]; 4 µM in [2]; 63 µM in data set [3]; 8 µM in data set [4]; 8 µM in data set [6]; more than 250 µM in data set [8]. Further, the “Lysis20 (highest concentration at which <20% of RBCs are lysed)” value in [7] is 63 μm.

Values taken from US12459898B2, “Polycationic amphiphiles as antimicrobial agents and methods using same” (Temple University-Of The Commonwealth System of Higher …, priority 2016, dated 2025).
